Experimental findings from patent publication US20260285857A1, “BICYCLIC AND HETEROCYCLIC AMIDE COMPOUNDS” (priority 2024, published 2026) are described below.

The first test has as its system immunoglobulin light chain protein WIL-FL T46L. Nature of the test: Differential scanning fluorimetry (thermal shift) assay. The settings on record: Table A; temperature shift [Tm]compound-[Tm]vehicle; recombinant WIL-FL T46L. The test is classed as binding.
With `Cc1cc(N2CC[C@](C)(c3ccccc3)C2)cn2nc(C(=O)NC3CCN(c4cccc(C(=O)O)c4)CC3)nc12` [Compound 273], the DSF result is reported as “***** (>2.5° C.=*****)”.

For `Cc1cc(OC[C@H](C)c2ccccc2)cn2nc(C34CC(CO3)C4N)nc12` (stereo partly drawn) [Compound 98], the DSF entry is “*** (>1-1.5° C.=***)”. Take `Cc1cc(N2CC[C@](C)(c3cccc(F)c3)C2)cn2nc(C(=O)N3CCC(C)(O)C3)nc12` (stereo partly drawn) [Compound 385]: the DSF result was “***** (>2.5° C.=*****)”. `Cc1cccc([C@@]2(C)CCN(c3cc(C)c4nc(C(=O)N5CC[C@@]6(CCN(c7cccc(C(=O)O)n7)C6)C5)nn4c3)C2)c1` [Compound 416]: the DSF entry was “***** (>2.5° C.=*****)”.

As to `Cc1cc(N2CC3(c4ccccc4)CC2C3)cn2nc(C(=O)N3CC4CN(c5cccc(C(=O)O)n5)CC4C3)nc12` (stereo not drawn) [Compound 431], the DSF entry is given as “* (0-0.5° C.=*)”.

In the case of `CCS(=O)(=O)NCc1cc(N2CC[C@](C)(c3ccccc3)C2)cn2nc(C(=O)NC)nc12` [Compound 349], the DSF entry is listed as “***** (>2.5° C.=*****)”.

For `Cc1cc(N2CC[C@](C)(c3ccccc3)C2)cn2nc(C34CC(CO3)C4c3cn(C)nn3)nc12` (stereo partly drawn) [Compound 11, 8-methyl-6-[(3R)-3-methyl-3-phenyl-pyrrolidin-1-yl]-2-[5-(1-methyltriazol-4-yl)-2-oxabicyclo[2.1.1]hexan-1-yl]-[1,2,4]triazolo[1,5-a]pyridine], the DSF result is on record as “***** (>2.5° C.=*****)”.

In the case of `Cc1cc(N2CC[C@](C)(c3ccccc3)C2)cn2nc(C34CC(CO3)C4Cc3ncnn3C)nc12` (stereo partly drawn) [Compound 86], the DSF entry is given as “***** (>2.5° C.=*****)”. Regarding `Cc1cc(N2CCC(C)(c3cccc(F)c3)C2)cn2nc(C(=O)NC3CCOC3)nc12` (stereo not drawn) [Compound 383], the DSF result was “***** (>2.5° C.=*****)”. With `COC(=O)c1cccc(N2C[C@H]3CN(C(=S)c4nc5c(C)cc(N6CCC(C)(c7nnc(C)s7)C6)cn5n4)C[C@H]3C2)n1` (stereo partly drawn) [Compound 38, methyl 6-[5-[8-methyl-6-[3-methyl-3-(5-methyl-1,3,4-thiadiazol-2-yl)pyrrolidin-1-yl]-[1,2,4]triazolo[1,5-a]pyridine-2-carbothioyl]-1,3,3a, 4,6,6a-hexahydropyrrolo[3,4-c]pyrrol-2-yl]pyridine-2-carboxylate], the DSF result is recorded as “* (0-0.5° C.=*)”. As for `Cc1cc(N2CC[C@](C)(c3ccccc3)C2)cn2nc(C(=O)NCCC(C)(C)O)nc12` [Compound 130], the DSF entry was “***** (>2.5° C.=*****)”. Same read-out and setting: under `Cc1nc(C2C3(C(=O)O)COC2(c2nc4c(C)cc(N5CC[C@](C)(c6ccccc6)C5)cn4n2)C3)n[nH]1` (stereo partly drawn) [Compound 1A, 5-(5-methyl-1H-1,2,4-triazol-3-yl)-1-(8-methyl-6-((R)-3-methyl-3-phenylpyrrolidin-1-yl)-[1,2,4]triazolo[1,5-a]pyridin-2-yl)-2-oxabicyclo[2.1.1]hexane-4-carboxylic acid] stands “***** (>2.5° C.=*****)”. As for `Cc1cc(OC[C@H](C)c2ccccc2)cn2nc(C(=O)N[C@H]3[C@H]4CN[C@@H]3C4)nc12` [Compound 322], the DSF entry is listed as “***** (>2.5° C.=*****)”. For `Cc1cc(N2CC[C@](C)(c3ccccc3)C2)cn2nc(C3OC4(CO)CC3(C(N)=O)C4)nc12` (stereo partly drawn) [Compound 12], the DSF result is listed as “***** (>2.5° C.=*****)”. For the compound `Cc1cc(N2CC[C@](C)(c3ccccc3)C2)cn2nc(C(=O)NC3CC4(C3)CN(C3CC(C)(C(=O)O)C3)C4)nc12` (stereo partly drawn) [Compound 371], the DSF entry was “***** (>2.5° C.=*****)”. Same read-out and setting: under `Cc1cc(N2CC[C@](C)(c3ccccc3)C2)cn2nc(C(=O)NC3(C)CCNC3)nc12` (stereo partly drawn) [Compound 189] stands “***** (>2.5° C.=*****)”; under `Cc1cc(N2CC[C@](C)(c3ccccc3)C2)cn2nc(C(=O)N3CCCC(C(=O)O)C3)nc12` (stereo partly drawn) [Compound 197], “***** (>2.5° C.=*****)”. Regarding `CCC1(c2ccccc2)CN(c2cc(CO)c3nc(C(=O)NC)nn3c2)C1` [Compound 391], the DSF result is “***** (>2.5° C.=*****)”.

Staying with this test, now noted: Table B; temperature shift [Tm]compound-[Tm]vehicle; recombinant WIL-FL T46L.
Regarding `Cc1n[nH]c(C2C3(CNC(=O)C4CC[C@H](C(=O)O)O4)COC2(c2nc4c(C)cc(N5CC[C@](C)(c6ccccc6)C5)cn4n2)C3)n1` (stereo partly drawn) [Compound 590], the DSF result is listed as “***** (>2.5° C.=*****)”.

As for `Cc1cc(N2CC[C@](C)(c3ccccc3F)C2)cn2nc(C(=O)N3CC[C@@]4(CCN(c5cccc(C(=O)O)n5)C4)C3)nc12` [Compound 749], the DSF entry is on record as “***** (>2.5° C.=*****)”. In the case of `Cc1cc(N2CC[C@](C)(c3ccccc3)C2)cn2nc(C34CC(CO3)C4COc3ccc(=O)[nH]c3)nc12` (stereo partly drawn) [Compound 500], the DSF result is recorded as “***** (>2.5° C.=*****)”.

With `C[C@]1(c2ccccc2)CCN(c2cc(CO)c3nc(C45CC(CO)(CO4)C5C(N)=O)nn3c2)C1` (stereo partly drawn) [Compound 536], the DSF result was “***** (>2.5° C.=*****)”. As to `Cc1cc(N2CC[C@](C)(c3ccccc3)C2)cn2nc(C(=O)NC3CCC34CC(O)C4)nc12` (stereo partly drawn) [Compound 676, N-(2-hydroxyspiro[3.3]heptan-7-yl)-8-methyl-6-[(3R)-3-methyl-3-phenyl-pyrrolidin-1-yl]-[1,2,4]triazolo[1,5-a]pyridine-2-carboxamide], the DSF entry is “***** (>2.5° C.=*****)”. In the case of `Cc1cc(N2CC[C@](C)(c3ccccc3)C2)cn2nc(C34CC(CO3)C4COC3CCN(c4cccc(C(=O)O)n4)CC3)nc12` (stereo partly drawn) [Compound 503], the DSF entry is listed as “***** (>2.5° C.=*****)”. In the case of `Cc1cc(N2CC[C@](C)(c3ccccc3Cl)C2)cn2nc(C34CC(CO3)C4N3CC4(CC4)NC3=O)nc12` (stereo partly drawn) [Compound 513, 6-[1-[6-[(3R)-3-(2-chlorophenyl)-3-methyl-pyrrolidin-1-yl]-8-methyl-[1,2,4]triazolo[1,5-a]pyridin-2-yl]-2-oxabicyclo[2.1.1]hexan-5-yl]-4,6-diazaspiro[2.4]heptan-5-one], the DSF result was “***** (>2.5° C.=*****)”. As for `Cc1cc(N2CC[C@](C)(c3ccccc3)C2)cn2nc(C34CC(CO)(CO3)C4C(=O)NCC(C)(C)C(=O)O)nc12` (stereo partly drawn) [Compound 569, 3-[[4-(hydroxymethyl)-1-[8-methyl-6-[(3R)-3-methyl-3-phenyl-pyrrolidin-1-yl]-[1,2,4]triazolo[1,5-a]pyridin-2-yl]-2-oxabicyclo[2.1.1]hexane-5-carbonyl]amino]-2,2-dimethyl-propanoic acid], the DSF result was “**** (>1.5-2.5° C.=****)”. As for `Cc1cc(N2CC[C@](C)(c3ccccc3)C2)cn2nc(C(=O)N3CCC4(CCC(N5CC(C(=O)O)C5)C4)C3)nc12` (stereo partly drawn) [Compound 722], the DSF result is “***** (>2.5° C.=*****)”. Take `Cc1n[nH]c(C2C3(NC(=O)[C@@H]4CC[C@H](C(=O)O)O4)COC2(c2nc4c(C)cc(N5CC[C@](C)(c6ccccc6)C5)cn4n2)C3)n1` (stereo partly drawn) [Compound 538, (2R,5S)-5-((5-(3-methyl-1H-1,2,4-triazol-5-yl)-1-(8-methyl-6-((R)-3-methyl-3-phenylpyrrolidin-1-yl)-[1,2,4]triazolo[1,5-a]pyridin-2-yl)-2-oxabicyclo[2.1.1]hexan-4-yl)carbamoyl)tetrahydrofuran-2-carboxylic acid]: the DSF entry was “***** (>2.5° C.=*****)”. Take `Cc1cc(N2CC[C@](C)(c3ccccc3)C2)cn2nc(C34CC(C(=O)NC5CCOC5)(CO3)C4)nc12` (stereo partly drawn) [Compound 446]: the DSF entry is “***** (>2.5° C.=*****)”.

Take `Cc1cc(N2CC[C@](C)(c3ccccc3)C2)cn2nc(C(=O)NC34CCC(CO)(CC3)OC4)nc12` [Compound 602]: the DSF entry is listed as “***** (>2.5° C.=*****)”.

`Cc1cc(N2CC[C@](C)(c3ccccc3)C2)cn2nc(C34CC(CO)(CO3)C4c3nnnn3C)nc12` (stereo partly drawn) [Compound 571]: the DSF entry is recorded as “***** (>2.5° C.=*****)”. As for `Cc1cc(N2CC[C@](C)(c3ccccc3)C2)cn2nc(C(=O)NC3CC[C@]4(CCN(c5cccc(C(=O)O)n5)C4)C3)nc12` (mixture of isomers) [Compound 633, 6-[rac-(5S)-8-[[8-methyl-6-[rac-(3R)-3-methyl-3-phenyl-pyrrolidin-1-yl]-[1,2,4]triazolo[1,5-a]pyridine-2-carbonyl]amino]-2-azaspiro[4.4]nonan-2-yl]pyridine-2-carboxylic acid], the DSF entry was “***** (>2.5° C.=*****)”. `Cc1cc(N2CC[C@](C)(c3ccccc3)C2)cn2nc(C(=O)NC3CC4(C3)CN(C(=O)C3CC(C)(C(=O)O)C3)C4)nc12` (stereo partly drawn) [Compound 680]: the DSF entry was “***** (>2.5° C.=*****)”. As to `Cc1cc(N2CC[C@](C)(c3ccccc3)C2)cn2nc(C(=O)N[C@H]3C[C@@]4(CCN(c5cccc(C(=O)O)n5)C4)C3)nc12` [Compound 624], the DSF result is recorded as “***** (>2.5° C.=*****)”.

On to `Cc1cc(N2CC[C@](C)(c3ccccc3)C2)cn2nc(C34CC(C(=O)N5CC6C(C5)C6C(=O)O)(CO3)C4)nc12` (stereo partly drawn) [Compound 445], for which the DSF result is reported as “***** (>2.5° C.=*****)”. Still for that read-out and setting: then `Cc1cc(N2CC[C@](C)(c3ccccc3)C2)cn2nc(C34CC(CNC(=O)CC(C)(C)O)(CO3)C4)nc12` [Compound 457, (R)-3-hydroxy-3-methyl-N-((1-(8-methyl-6-(3-methyl-3-phenylpyrrolidin-1-yl)-[1,2,4]triazolo[1,5-a]pyridin-2-yl)-2-oxabicyclo[2.1.1]hexan-4-yl)methyl)butanamide], with “***** (>2.5° C.=*****)”; and `Cc1cc(N2CC[C@@](C)(c3cccc(F)c3)C2)cn2nc(C(=O)N3CC[C@@]4(CCN(c5cccc(C(=O)O)n5)C4)C3)nc12` [Compound 763, 6-((R)-7-(6-((S)-3-(3-fluorophenyl)-3-methylpyrrolidin-1-yl)-8-methyl-[1,2,4]triazolo[1,5-a]pyridine-2-carbonyl)-2,7-diazaspiro[4.4]nonan-2-yl)picolinic acid], with “***** (>2.5° C.=*****)”. For the compound `Cc1cc(N2CC[C@](C)(c3ccccc3)C2)cn2nc(C(=O)N3CCc4c(nnn4-c4ccnc(C(=O)O)c4)C3)nc12` [Compound 639], the DSF result is recorded as “***** (>2.5° C.=*****)”.

In the case of `Cc1cc(N2CC[C@](C)(c3ccccc3)C2)cn2nc(C34CC(N5CCC(C(=O)O)CC5=O)(CO3)C4)nc12` (stereo partly drawn) [Compound 469, 1-(1-(8-methyl-6-((R)-3-methyl-3-phenylpyrrolidin-1-yl)-[1,2,4]triazolo[1,5-a]pyridin-2-yl)-2-oxabicyclo[2.1.1]hexan-4-yl)-2-oxopiperidine-4-carboxylic acid], the DSF entry is recorded as “***** (>2.5° C.=*****)”.
